The subject of the experiment is AKR18A1. In words: HPLC substrate decrease, Michaelis-Menten fit. The experiment is classed as biochemical, Sphingomonas sp. S3-4. The settings on record: 45 °C.

As usually defined, the Km is the substrate concentration at which the rate is half of its maximum. Regarding `NC(=O)C1=CN([C@@H]2O[C@H](COP(=O)(O)OP(=O)(O)OC[C@H]3O[C@@H](n4cnc5c(N)ncnc54)[C@H](O)[C@@H]3O)[C@@H](O)[C@H]2O)C=CC1` [NADH], where the note is “reduction of 3-oxo-DON, sodium phosphate pH 7.0, printed unit mM is doubtful, probably a misprint for μM (assays use 0.2 mM NADH)”, the Km was 78 ± 28 mM.
Turning to `NC(=O)c1ccc[n+]([C@@H]2O[C@H](COP(=O)(O)OP(=O)(O)OC[C@H]3O[C@@H](n4cnc5c(N)ncnc54)[C@H](OP(=O)(O)O)[C@@H]3O)[C@@H](O)[C@H]2O)c1` [NADP^+], the Km (oxidation of DON, glycine-NaOH pH 10.6) was determined as 0.48 ± 0.07 mM.

(Values after publication PMC5573404, “An aldo-keto reductase is responsible for Fusarium toxin-degrading activity in a soil Sphingomonas strain” (Scientific Reports, 2017).)
